These are literature values, as cited in patent publication US20250339362A1, “SKINCARE SUPPLEMENTS” (Natals, Inc., priority 2024, published 2025).

Where two headings read alike, the source gives them in different places.

The series concerns male and female subjects ages 35-64 years. The note with it: 120 mg HA capsule orally once per day, Visioscan.

For hyaluronic acid [HA], the “facial skin smoothness: Statistical significance compared to placebo” value reads like this: (Week 8) “No”; (Week 12) “statistically significant reduction in smoothness”.
